Converted amounts (≈) assume the structure as drawn.
Assays:
Pseudomonas aeruginosa [1] = experiment: Antibacterial activity against Pseudomonas aeruginosa assessed as inhibition of bacterial growth measured after 24 hrs by two-fold serial dilution method; assay type: functional
Enterococcus faecalis = experiment: Antibacterial activity against Enterococcus faecalis assessed as inhibition of bacterial growth measured after 24 hrs by two-fold serial dilution method; assay type: functional
Acinetobacter baumannii = experiment: Antibacterial activity against Acinetobacter baumanii assessed as inhibition of bacterial growth measured after 24 hrs by two-fold serial dilution method; assay type: functional
Escherichia coli [2] = experiment: Antibacterial activity against Escherichia coli assessed as inhibition of bacterial growth measured after 24 hrs by two-fold serial dilution method; assay type: functional
[3] = Haemolytic activity in human erythrocytes incubated for 2 hrs; assay type: ADME, cell-based, Erythrocyte
Staphylococcus aureus [4] = experiment: Antibacterial activity against Staphylococcus aureus ATCC 29213 assessed as inhibition of bacterial growth measured after 24 hrs by two-fold serial dilution method; assay type: functional
Staphylococcus aureus [5] = experiment: Antibacterial activity against methicillin-resistant Staphylococcus aureus assessed as inhibition of bacterial growth measured after 24 hrs by two-fold serial dilution method; assay type: functional
Staphylococcus aureus [6] = experiment: Antibacterial activity against Staphylococcus aureus ATCC 25923 assessed as inhibition of bacterial growth measured after 24 hrs by two-fold serial dilution method; assay type: functional
Pseudomonas aeruginosa [7] = experiment: Antibacterial activity against Pseudomonas aeruginosa ATCC 27853 assessed as inhibition of bacterial growth measured after 24 hrs by two-fold serial dilution method; assay type: functional
Staphylococcus aureus [8] = experiment: Antibacterial activity against Staphylococcus aureus assessed as inhibition of bacterial growth measured after 24 hrs by two-fold serial dilution method; assay type: functional
Escherichia coli [9] = experiment: Antibacterial activity against Escherichia coli ATCC 25922 assessed as inhibition of bacterial growth measured after 24 hrs by two-fold serial dilution method; assay type: functional
Klebsiella pneumoniae = experiment: Antibacterial activity against Klebsiella pneumoniae assessed as inhibition of bacterial growth measured after 24 hrs by two-fold serial dilution method; assay type: functional

Row | SMILES | MIC (Pseudomonas aeruginosa [1]) | MIC (Enterococcus faecalis) | MIC (Acinetobacter baumannii) | MIC (Escherichia coli [2]) | HC50 at 2 h [3] | MIC (Staphylococcus aureus [4]) | MIC (Staphylococcus aureus [5]) | MIC (Staphylococcus aureus [6]) | MIC (Pseudomonas aeruginosa [7]) | MIC (Staphylococcus aureus [8]) | MIC (Escherichia coli [9]) | MIC (Klebsiella pneumoniae)
1 | O=C(/C(=C/c1cccs1)n1cnc2cc(Cl)ccc2c1=O)c1nccs1 | 64 µg/mL (≈ 160 µM) | 512 µg/mL (≈ 1280 µM) | 512 µg/mL (≈ 1280 µM) | 512 µg/mL (≈ 1280 µM) | 211 µg/mL | 16 µg/mL (≈ 40 µM) | 512 µg/mL (≈ 1280 µM) | 16 µg/mL (≈ 40 µM) | 64 µg/mL (≈ 160 µM) | 16 µg/mL (≈ 40 µM) | 32 µg/mL (≈ 80 µM) | 32 µg/mL (≈ 80 µM)
2 | O=C(/C(=C/c1ccc(C(F)(F)F)cc1)n1cnc2cc(F)ccc2c1=O)c1nccs1 | 16 µg/mL (≈ 35.9 µM) | 4 µg/mL (≈ 8.98 µM) | 1 µg/mL (≈ 2.25 µM) | 8 µg/mL (≈ 18 µM) | > 250 µg/mL | 4 µg/mL (≈ 8.98 µM) | 8 µg/mL (≈ 18 µM) | 2 µg/mL (≈ 4.49 µM) | 4 µg/mL (≈ 8.98 µM) | 16 µg/mL (≈ 35.9 µM) | 4 µg/mL (≈ 8.98 µM) | 2 µg/mL (≈ 4.49 µM)
3 | O=C(/C(=C/c1cccc(Cl)c1)n1cnc2cc(Cl)ccc2c1=O)c1nccs1 | 32 µg/mL (≈ 74.7 µM) | 128 µg/mL (≈ 299 µM) | 1 µg/mL (≈ 2.33 µM) | 4 µg/mL (≈ 9.34 µM) | > 250 µg/mL | 8 µg/mL (≈ 18.7 µM) | 8 µg/mL (≈ 18.7 µM) | 8 µg/mL (≈ 18.7 µM) | 4 µg/mL (≈ 9.34 µM) | 32 µg/mL (≈ 74.7 µM) | 4 µg/mL (≈ 9.34 µM) | 128 µg/mL (≈ 299 µM)
4 | O=C(/C(=C/c1nccs1)n1cnc2cc(Cl)ccc2c1=O)c1nccs1 | 16 µg/mL (≈ 39.9 µM) | 1 µg/mL (≈ 2.49 µM) | 16 µg/mL (≈ 39.9 µM) | 16 µg/mL (≈ 39.9 µM) | 115 µg/mL | 2 µg/mL (≈ 4.99 µM) | 4 µg/mL (≈ 9.98 µM) | 2 µg/mL (≈ 4.99 µM) | 4 µg/mL (≈ 9.98 µM) | 2 µg/mL (≈ 4.99 µM) | 4 µg/mL (≈ 9.98 µM) | 4 µg/mL (≈ 9.98 µM)
5 | O=C(/C(=C/c1ccc(F)cc1F)n1cnc2cc(Cl)ccc2c1=O)c1nccs1 | 8 µg/mL (≈ 18.6 µM) | 8 µg/mL (≈ 18.6 µM) | 2 µg/mL (≈ 4.65 µM) | 8 µg/mL (≈ 18.6 µM) | 203 µg/mL | 8 µg/mL (≈ 18.6 µM) | 8 µg/mL (≈ 18.6 µM) | 2 µg/mL (≈ 4.65 µM) | 4 µg/mL (≈ 9.31 µM) | 8 µg/mL (≈ 18.6 µM) | 2 µg/mL (≈ 4.65 µM) | 8 µg/mL (≈ 18.6 µM)
6 | O=C(/C(=C/c1c[nH]c2ccccc12)n1cnc2cc(Cl)ccc2c1=O)c1nccs1 | 256 µg/mL (≈ 591 µM) | 256 µg/mL (≈ 591 µM) | 256 µg/mL (≈ 591 µM) | 64 µg/mL (≈ 148 µM) | > 250 µg/mL | 64 µg/mL (≈ 148 µM) | 256 µg/mL (≈ 591 µM) | 64 µg/mL (≈ 148 µM) | 64 µg/mL (≈ 148 µM) | 64 µg/mL (≈ 148 µM) | 64 µg/mL (≈ 148 µM) | 128 µg/mL (≈ 296 µM)
7 | CCn1cc(/C=C(/C(=O)c2nccs2)n2cnc3cc(Cl)ccc3c2=O)c2ccccc21 | 128 µg/mL (≈ 278 µM) | 512 µg/mL (≈ 1110 µM) | 128 µg/mL (≈ 278 µM) | 512 µg/mL (≈ 1110 µM) | > 250 µg/mL | 1 µg/mL (≈ 2.17 µM) | 512 µg/mL (≈ 1110 µM) | 512 µg/mL (≈ 1110 µM) | 32 µg/mL (≈ 69.4 µM) | 512 µg/mL (≈ 1110 µM) | 512 µg/mL (≈ 1110 µM) | 512 µg/mL (≈ 1110 µM)
8 | O=C(/C(=C/c1ccco1)n1cnc2cc(Cl)ccc2c1=O)c1nccs1 | 64 µg/mL (≈ 167 µM) | 8 µg/mL (≈ 20.8 µM) | 16 µg/mL (≈ 41.7 µM) | 128 µg/mL (≈ 333 µM) | > 250 µg/mL | 8 µg/mL (≈ 20.8 µM) | 32 µg/mL (≈ 83.4 µM) | 8 µg/mL (≈ 20.8 µM) | 32 µg/mL (≈ 83.4 µM) | 64 µg/mL (≈ 167 µM) | 16 µg/mL (≈ 41.7 µM) | 64 µg/mL (≈ 167 µM)
9 | N#Cc1ccc(/C=C(/C(=O)c2nccs2)n2cnc3cc(Cl)ccc3c2=O)cc1 | 2 µg/mL (≈ 4.77 µM) | 1 µg/mL (≈ 2.39 µM) | 512 µg/mL (≈ 1220 µM) | 16 µg/mL (≈ 38.2 µM) | > 250 µg/mL | 1 µg/mL (≈ 2.39 µM) | 4 µg/mL (≈ 9.55 µM) | 1 µg/mL (≈ 2.39 µM) | 2 µg/mL (≈ 4.77 µM) | 32 µg/mL (≈ 76.4 µM) | 4 µg/mL (≈ 9.55 µM) | 8 µg/mL (≈ 19.1 µM)
10 | O=C(/C(=C/c1ccccc1Cl)n1cnc2cc(Cl)ccc2c1=O)c1nccs1 | 2 µg/mL (≈ 4.67 µM) | 1 µg/mL (≈ 2.33 µM) | 512 µg/mL (≈ 1200 µM) | 8 µg/mL (≈ 18.7 µM) | 195 µg/mL | 4 µg/mL (≈ 9.34 µM) | 2 µg/mL (≈ 4.67 µM) | 1 µg/mL (≈ 2.33 µM) | 2 µg/mL (≈ 4.67 µM) | 16 µg/mL (≈ 37.4 µM) | 2 µg/mL (≈ 4.67 µM) | 4 µg/mL (≈ 9.34 µM)
11 | COc1ccc(/C=C(/C(=O)c2nccs2)n2cnc3cc(Cl)ccc3c2=O)cc1 | 32 µg/mL (≈ 75.5 µM) | 32 µg/mL (≈ 75.5 µM) | 512 µg/mL (≈ 1210 µM) | 32 µg/mL (≈ 75.5 µM) | 245 µg/mL | 4 µg/mL (≈ 9.44 µM) | 8 µg/mL (≈ 18.9 µM) | 4 µg/mL (≈ 9.44 µM) | 32 µg/mL (≈ 75.5 µM) | 64 µg/mL (≈ 151 µM) | 32 µg/mL (≈ 75.5 µM) | 512 µg/mL (≈ 1210 µM)
12 | O=C(/C(=C/c1c[nH]c2cc(Cl)ccc12)n1cnc2cc(Cl)ccc2c1=O)c1nccs1 | 256 µg/mL (≈ 548 µM) | 2 µg/mL (≈ 4.28 µM) | 512 µg/mL (≈ 1100 µM) | 64 µg/mL (≈ 137 µM) | > 250 µg/mL | 2 µg/mL (≈ 4.28 µM) | 32 µg/mL (≈ 68.5 µM) | 2 µg/mL (≈ 4.28 µM) | 64 µg/mL (≈ 137 µM) | 512 µg/mL (≈ 1100 µM) | 2 µg/mL (≈ 4.28 µM) | 64 µg/mL (≈ 137 µM)

Source: ChEMBL document CHEMBL5036317, “Identification of Unique Quinazolone Thiazoles as Novel Structural Scaffolds for Potential Gram-Negative Bacterial Conquerors” (J Med Chem, 2021)
